Reference: US7700562B2, “Use of —furin—“convertase” inhibitors in the treatment of fibrosis and scarring” (Renovo Limited, priority 2002, dated 2010)
Non-standard residues stand in square brackets, D forms with d. Residues, ends and D or L forms follow the SMILES beside them. *: point of attachment. Sta = CC(C)C[C@H](N)[C@@H](O)CC(=O)O; Decanoyl = CCCCCCCCCC(=O)*; Isovaleryl = CC(C)CC(=O)*; CH2Cl = ClC*

Key:
[1] = system: latent TGF-β activation in human platelets; experiment: TGF-β activation by thrombin-activated human platelets, active and total TGF-β by PAI/L bioassay; format: cell-based; conditions: for latent TGF-β activation: platelets pre-incubated with inhibitor before thrombin stimulation, platelet releasates, FIG. 1 panels A and B
[2] = system: furin-like enzyme activity; experiment: Furin-like enzyme activity in platelet lysates and releasates, fluorogenic furin substrate pyr-RTKR-amc; format: biochemical, human; conditions: hexaarginine 200 μM, dec-RVKR-cmk 150 μM, FIG. 3; for furin-like enzyme activity in cell lysates: hypotonic lysates of activated platelets; for furin-like enzyme activity in releasates: releasates of activated platelets
Procedure: (§1) Platelets collected as described above were resuspended in distilled water and incubated at room temperature for 5 minutes. Lysis was stopped by addition of an equal volume of 2× serum-free DME medium containing 0.2% pyrogen poor bovine serum albumen. The lysate was cleared by centrifugation at 12,000 g for 10 minutes at room temperature before use.
Releasates or hypotonic lysates of activated platelets were assayed using the furin substrate, pyr-RTKR-amc (SEQ ID NO:3) in the absence or presence of the furin inhibitors, hexaarginine (SEQ ID NO: 7) (200 μM) or dec-RVKR-cmk (SEQ ID NO:1) (150 μM). Values were corrected for substrate-independent endogenous fluorescence (control without substrate) as well as for spontaneous substrate hydrolysis (buffer control). Mean values±S.E.M. of 2-3 separate experiments assayed in duplicate are shown.
The presence of furin-like enzyme activity in both hypotonic lysates and releasates of human platelets was analysed using the fluorogenic furin substrate, pyr-RTKR-amc (SEQ ID NO:3). Platelet lysates contained a furin-like enzyme activity, part of which (approximately 12%) was released upon thrombin stimulation. Enzyme activity in cell lysates and releasates was inhibited by dec-RVKR-cmk (SEQ ID NO:1) and hexa-L-arginine (SEQ ID NO: 7) (FIG. 3).

[3] = system: latent TGF-β activation in human platelets; experiment: TGF-β activation by thrombin-activated human platelets, active and total TGF-β by PAI/L bioassay; format: cell-based; conditions: for active TGF-β in releasates: thrombin-stimulated platelets, hexaarginine pre-incubated, dec-RVKR-cmk added, FIG. 2 panel A
Procedure: Peripheral venous blood samples from healthy adult volunteers (aged 21 to 45) were taken into 20-gauge S-Monovettes. EDTA was used to prevent coagulation of the samples. Human platelets were isolated by differential centrifugation according to the following protocol:
Blood samples were centrifuged at 300 g for 10 minutes to produce a supernatant of platelet rich plasma. Platelet rich plasma was then centrifuged at 2,500 g for 15 minutes to produce a pellet of platelets. Platelets were harvested from the pellet and resuspended prior to use.
as §1
Human platelets collected as outlined above were activated by the addition of thrombin (0.1 u/ml for 30 minutes at 37° C.).
Platelets were activated with thrombin in the absence or presence of furin inhibitors. […] Active and total TGF-β in releasates were determined in the PAI/L bioassay. The results are shown in panel A of FIG. 2.

[4] = system: latent TGF-β activation in platelet-free releasates; experiment: TGF-β activation in platelet-free releasates of activated platelets, PAI/L bioassay; format: biochemical, human; conditions: inhibitor added to platelet-free releasates, 30 mm at 37° C.; FIG. 2B
Procedure: In a further experiment, furin inhibitors were added to platelet-free releasates of activated platelets, and activation was allowed to continue in the absence of platelets for […] at 37° C. The results of this experiment are shown in panel B of FIG. 2. Active TGF-β levels in the controls were 77 pg/ml (dec-RVKR-cmk data (SEQ ID NO:1)) and 104 pg/ml (hexaarginine data (SEQ ID NO: 7)). Incubation on ice reduced activation in the controls to approximately 56% (data not shown). Data represent the mean values of three independent experiments assayed in triplicate.

Compound: CC(C)C[C@H](NC(=O)[C@H]1O[C@@H]1C(=O)O)C(=O)NCCCCN=C(N)N [E-64]
- latent TGF-β activation [1]: ineffective

Compound: O=C[C@@H](O)[C@@H](O)[C@H](O)[C@H](O)COP(=O)(O)O [M6P, mannose-6-phosphate]
- latent TGF-β activation [1]: not significantly affected

Compound: CC(=O)N[C@@H](CC(C)C)C(=O)N[C@@H](CC(C)C)C(=O)N[C@H](C=O)CCCNC(=N)N [leupeptin]
- latent TGF-β activation [1]: ineffective

Compound: Cl.NCCc1ccc(S(=O)(=O)F)cc1 [pefabloc]
- latent TGF-β activation [1]: ineffective

Compound: CC(C)CC(=O)N[C@H](C(=O)N[C@H](C(=O)N[C@@H](CC(C)C)[C@@H](O)CC(=O)N[C@@H](C)C(=O)N[C@@H](CC(C)C)[C@@H](O)CC(=O)O)C(C)C)C(C)C [pepstatin] (Isovaleryl-VV[Sta]A[Sta]-OH)
- latent TGF-β activation [1]: ineffective

Compound: LSKL peptide: inhibitor specific for TSP-1
- latent TGF-β activation [1]: not significantly affected

Compound: aprotinin
- latent TGF-β activation [1]: ineffective

Compound: decanoyl-Arg-Val-Lys-Arg-chloromethyl ketone (Decanoyl-RVKR-CH2Cl) [dec-RVKR-cmk]
- furin-like enzyme activity in cell lysates [2]: inhibited
- furin-like enzyme activity in releasates [2]: inhibited
- residual TGF-β present ([3]; remaining after inhibitor, believed to be activated prematurely during platelet preparation): 20-30%
- active TGF-β in releasates [3]: considerably reduces
- generation of active TGF-β intracellularly ([1]; measured in hypotonic lysates, dose-dependent, FIG. 1 panel C): drastically reduced
- generation of active TGF-β in releasates ([1]; platelet incubation with inhibitor, thrombin stimulation, dose-dependent, FIG. 1 panel C): drastically reduced
- activation in platelet-free releasates [4]: inhibited, in a dose-dependent fashion

Compound: hexa-L-arginine (RRRRRR)
- furin-like enzyme activity in cell lysates [2]: inhibited
- furin-like enzyme activity in releasates [2]: inhibited
- active TGF-β in releasates [3]: significantly reduced
- activation in platelet-free releasates [4]: inhibited, in a dose-dependent fashion

Compound: α1-antitrypsin
- latent TGF-β activation [1]: ineffective
